In patent US10117864B2, “Substituted N-bicyclo-2-aryl-quinolin-4-carboxamides and use thereof” (BAYER PHARMA AKTIENGESELLSCHAFT, priority 2015, dated 2018) one finds IC50, half-life and t1/2 data, which are given here for five molecules.

As a reminder, the pIC50 is the IC50 on a negative log10 scale, so that one unit is a factor of ten.

pIC50: −log10 of the molar value.

In series [1] the target is human FP receptor (Homo sapiens (Human), UniProt P43088). In words: In vitro test of inhibition of human FP receptor activity (PGF2α-induced calcium flux in FP-expressing CHEM1 cells). The series is classed as cell-based. The settings on record: PGF2α-induced (3 nM) calcium flux, some as mean values from multiple independent determinations. The source says:
• CRTH2 chemoattractant receptor-homologous molecule expressed on T helper type 2 cells • DMEM Dulbecco's modified Eagle's medium • DMSO dimethyl sulfoxide • DP PGD2 receptor • EC50 half-maximum effective concentration • Em emission • EP PGE2 receptor • Ex excitation • from Company (source) • FCS fetal calf serum • FP PGF2α receptor • HEPES 2-[4-(2-hydroxyethyl)piperazin-1-yl]ethanesulfonic acid • IC50 half-maximum inhibitory concentration • IP PGI2 receptor • MES 2-(N-morpholino)ethanesulfonic acid • Pen/Strep penicillin/streptomycin • PGD2 prostaglandin D2 • PGE2 prostaglandin E2 • PGF2α prostaglandin F2α • PGI2 prostaglandin I2 • TC tissue culture • TP thromboxane A2 receptor • Tris tris(hydroxymethyl)aminomethane • v/v volume to volume ratio (of a solution) • w/w weight to weight ratio (of a solution) B-1. In Vitro Test of Inhibition of Human FP Receptor Activity
For the characterization of test substances in respect of FP antagonism, PGF2α-induced calcium flux in FP-expressing CHEM1 cells (Millipore, HTS093C) was used.
Prior to the measurement, the medium is replaced by 30 μl of Fluo-8 AM loading buffer [calcium-free Tyrode (130 mM NaCl, 5 mM KCl, 20 mM HEPES, 1 mM MgCl2, 4.8 mM NaHCO3, pH 7.4), 2 mM CaCl2, 1× SmartBlock (from CANDOR Bioscience GmbH), 4.5 mM Probenecid, 5 μM Fluo-8 AM, 0.016% Pluronic®, 0.04% Brilliant black] and incubated at 37° C./5% CO2 for 30 minutes. […] 10 μl of the prediluted substance solution are added to the Fluo-8-laden cells and incubated at 37° C./5% CO2 for 10 minutes. The FP receptor is activated by adding 20 μl of 3 nM (final concentration) PGF2α in calcium-free Tyrode/2 mM CaCl2/0.04% Brilliant black, and the calcium flux is determined by measuring the fluorescence at ex. 470 nm/[…].
Table 1 below lists the IC50 values from this assay for individual working examples of the invention (some as mean values from multiple independent individual determinations): […]

The conditions of series [2]: eliminated renally; cited from earlier work.
For series [3] the following is noted: unstable molecule, rearranged enzymatically in lung, liver and kidney to 15-ketodihydro-PGF2α; cited from earlier work.

human FP receptor, sequence (P43088 whole entry): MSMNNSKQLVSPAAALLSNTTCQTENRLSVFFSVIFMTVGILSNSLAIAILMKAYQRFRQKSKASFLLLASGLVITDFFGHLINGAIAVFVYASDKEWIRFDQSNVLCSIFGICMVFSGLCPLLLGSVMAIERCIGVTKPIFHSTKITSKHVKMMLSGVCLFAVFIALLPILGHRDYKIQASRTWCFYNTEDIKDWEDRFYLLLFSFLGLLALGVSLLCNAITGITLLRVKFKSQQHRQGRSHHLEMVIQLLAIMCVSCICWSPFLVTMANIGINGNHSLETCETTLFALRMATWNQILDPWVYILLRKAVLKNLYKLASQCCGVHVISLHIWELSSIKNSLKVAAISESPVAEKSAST

For `Cc1c(-c2ccccc2)nc2ccc(Br)cc2c1C(=O)N[C@@H]1[C@@H]2CC[C@H]1C[C@H](C(=O)O)C2` [Example 65, (3-exo,8-anti)-8-{[(6-Bromo-3-methyl-2-phenylquinolin-4-yl)carbonyl]amino}bicyclo[3.2.1]octane-3-carboxylic acid], the pIC50 in series [1] is 6.08.

On to `N#Cc1c(-c2ccccc2)nc2ccc(Br)cc2c1C(=O)NC12CCC(C(=O)O)(CC1)CC2` [Example 66, 4-{[(6-Bromo-3-cyano-2-phenylquinolin-4-yl)carbonyl]amino}bicyclo[2.2.2]octane-1-carboxylic acid], for which the pIC50 in series [1] is 6.12.

In the case of `C=Cc1c(-c2ccccc2)nc2ccc(Br)cc2c1C(=O)NC12CCC(C(=O)O)(CC1)CC2` [Example 67, 4-{[(6-Bromo-2-phenyl-3-vinylquinolin-4-yl)carbonyl]amino}bicyclo[2.2.2]octane-1-carboxylic acid], the pIC50 in series [1] was 6.36.

Take Bleomycin: the half-life result in series [2] was “about 3 hours”.

Regarding Prostaglandin F2alpha [PGF2α], the t1/2 in series [3] is less than 1 min.
